The nature of this data set: Solubility measurement in diluting solvents. The data set is classed as physicochemical. Conditions: 25° C., 100 rpm, 1 hour, 0.5 g of compound added. How it is done: 0.5 g of each compound according to Synthesis Examples 1 to 3 was respectively added to diluting solvents (MeOH, CH2Cl2, cyclohexanone), each solution was stirred with a rotary mixer (Mixrotar VMR-5, Iuchi Seieido Co., Ltd.) at 25° C. and 100 rpm for 1 hour, and then, the dissolution state of each compound (the amount of the compound dissolved in the solvents) was examined, and the results are provided in Table 1.

Molecules are shown by their SMILES. Some results are limits rather than exact numbers.

Turning to `CCN(CCOC(=O)NC1CCCCC1)c1ccc2c(-c3ccccc3S(=O)(=O)[O-])c3cc/c(=[N+](/CC)CCOC(=O)NC4CCCCC4)cc-3oc2c1` [Chemical Formula 9], the “Amount of dissolved compound” value reads like this: (CH2Cl2) over 10% wt %; (Cyclohexanone) 5% wt %; (MeOH) over 10% wt %.
For the compound `CCN(CCOC(=O)Nc1ccccc1)c1ccc2c(-c3ccccc3S(=O)(=O)[O-])c3ccc(=[N+](CC)CC)cc-3oc2c1` [Chemical Formula 7], the “Amount of dissolved compound” value (CH2Cl2) was over 7% wt %, the “Amount of dissolved compound” value (Cyclohexanone) is 2% wt % and the “Amount of dissolved compound” value (MeOH) is given as over 7% wt %.
Regarding `CCN(CCOC(=O)NC(C)(C)C)c1ccc2c(-c3ccccc3S(=O)(=O)[O-])c3cc/c(=[N+](/CC)CCOC(=O)NC(C)(C)C)cc-3oc2c1` [Chemical Formula 8], the “Amount of dissolved compound” value (CH2Cl2) was over 10% wt %, the “Amount of dissolved compound” value (Cyclohexanone) was determined as 5% wt % and the “Amount of dissolved compound” value (MeOH) is reported as over 10% wt %.
With `CCN(CCOC(=O)Nc1ccccc1)c1ccc2c(-c3ccccc3S(=O)(=O)[O-])c3cc/c(=[N+](/CC)CCOC(=O)Nc4ccccc4)cc-3oc2c1` [Chemical Formula 10], the “Amount of dissolved compound” value is over 10% wt % (CH2Cl2), 3% wt % (Cyclohexanone) and over 10% wt % (MeOH).
With `CCN(CCOC(=O)NC1CCCCC1)c1ccc2c(-c3ccccc3S(=O)(=O)[O-])c3ccc(=[N+](CC)CC)cc-3oc2c1` [Chemical Formula 6], the “Amount of dissolved compound” value was over 7% wt % (CH2Cl2), 3% wt % (Cyclohexanone) and over 7% wt % (MeOH).
As to `CCN(CCOC(=O)NC(C)(C)C)c1ccc2c(-c3ccccc3S(=O)(=O)[O-])c3ccc(=[N+](CC)CC)cc-3oc2c1` [Chemical Formula 5], the “Amount of dissolved compound” value is over 7% wt % (CH2Cl2), 3% wt % (Cyclohexanone) and over 7% wt % (MeOH).

For the origin of these results see patent US10031417B2, “Compound, colorant including the same, positive photosensitive resin composition including the same and color filter” (SAMSUNG SDI CO., LTD., priority 2016, dated 2018).
